Test results as given in article PMC11272978, “Exploring the central region of amylin and its analogs aggregation: the influence of metal ions and residue substitutions” (Frontiers in Chemistry, 2024).
Entries after “also recorded” stand apart in the source; their conditions may differ. No end group written: not given here.

Key:
[1] = Atomic force microscopy (AFM) of fibrils; type: physicochemical
Procedure: AFM imaging was conducted in a 256-scanning line at a 1 Hz scanning rate by using Bruker’s Nano Dimension Icon (Bruker Nano Inc., Germany). In this procedure, 200–300 μM hIAPP-F and Pramlintide-M were incubated with and without selected metal ions at 25°C for 24 h. All the samples were dissolved in 50 mM phosphate buffer (pH 7.4). The height of peptide aggregates was obtained from its section tool through Nano Scope Analysis 1.5, and the line position with average effects in the images was selected, except peptides alone in fibril form.

[2] = tested on: HeLa cells; experiment: CCK-8 cytotoxicity assay; type: cell-based, human
Procedure: The cytotoxicity of the different peptides (rIAPP-F, hIAPP-F, Pramlintide-F, hIAPP-M, rIAPP-M, Pramlintide-M, and hIAPP) was tested using CCK-8 assay according to the manufacturer’s protocol. Briefly, cervical carcinoma cells (HeLa) were seeded into 96 well plates 8 × 10^3 cells/well in 100 µL DMEM culture medium with 10% FBS and 1% Penicillin-Streptomycin and incubated in a 5% CO2 incubator at 37°C overnight. After that, the cells were incubated with the different peptides prepared in deionized water at concentrations (200, 400, 600, and 800 μg/mL) for 24 h. In addition, the cytotoxicity of hIAPP-F and Pramlintide-M prepared in 0.5 mg/mL Cu(NO3)2 and ZnCl2 solutions at the same concentrations (200, 400, 600, and 800 μg/mL) was also tested. Cells without any treatment were used as a control, and all the conditions were done in triplicates. After 24 h, the media was discarded from the plate, and cells were washed with PBS. Then, 10 µL of CCK-8 and 90 µL of fresh DMEM media were added to each well and incubated for 4 h. The absorbance was measured at OD = […] using a microplate spectrophotometer (BioRad-xMark Microplate Absorbance Spectrophotometer). The ratio of the absorbance at 570/605 was calculated, and the average absorbance value of wells without cells was considered as blank and subtracted from all wells to cancel the background noise. The cells without any treatment were used as a control, and their mean value was considered 100% viable. The other treated cells’ viability was calculated using the formula: Cells viability % = (Corrected Mean Absorbance of treated cells)/(Corrected Mean Absorbance of control) ×100.

[3] = Thioflavin-T (ThT) aggregation assay; type: physicochemical; conditions: 40 μM peptide, 20 μM ThT, 50 mM phosphate buffer pH 7.4, 25°C; for ThT fluorescence intensity (aggregation), peptide alone: ex 485/20, em 528/20 nm, read each 5 min; for ThT fluorescence intensity (aggregation) with Cu(II): Cu(II) (Cu(NO3)2) 1:1; for ThT fluorescence intensity (aggregation) with Zn(II): Zn(II) (ZnCl2) 1:1
Procedure: (§1) Preparation of IAPP fragments solutions and thioflavin-T aggregation assays were performed as described earlier ([Alghrably et al., 2020]). In brief, IAPP fragments were dissolved in 50 mM phosphate buffer to concentrations of 1 mM. Stock solutions were diluted to the desired concentrations, and samples were used fresh each time. It is important to mention that due to the observation of turbidity after dissolving hIAPP-F and Pramlintide-M, both peptides were sonicated for 25 min. All of the aggregation reactions were conducted at 25°C with 40 μM IAPP fragments/mutants (final concentration) in 50 mM phosphate buffer (pH 7.4), and 20 μM thioflavin T in a final volume of 200 μL in each of the 96-well flat-bottom black plate (Corning 3915). We tested the aggregation of each IAPP fragment/mutants alone and with the addition of two metal ions Cu(II) and Zn(II). The metal ions were added to the IAPP fragments in 1:1 ratio. The plate was sealed with transparent film (Duck Brand Crystal Clear Tape, Avon, OH). Thioflavin T fluorescence emission at 528/20 nm (excitation at 485/20) was monitored on a Cytation 5 Multi-Mode Microplate. The measurements were collected by top reading each 5 min after a 3 s shake with an extended gain.

[4] = 1D 1H NMR signal intensity over time (aggregation); type: physicochemical; conditions: 310 K, over 44 hours; for NMR signal intensity over time (signal loss = aggregation), peptide alone: D2O with 20 mM phosphate buffer pH 7.4, 1.5 mM peptide (100 μM for hIAPP-F and Pramlintide-M)
Procedure: All peptides (except hIAPP-F and Pramlintide-M) were dissolved in 99.8% deuterium oxide containing 20 mM of phosphate buffer (pH 7.4). All samples contained 1.5 mM peptide concentration in 600 μL of sample volume except for hIAPP-F and Pramlintide-M, for which the final concentration was 100 μM (both peptides have a high tendency to aggregate at room temperature). The samples’ pH was manually adjusted to 7.4 with 0.1 M NaOD stock solution in 100% D2O. These samples were used for the ^1H and ^13C resonances assignment based on 2D spectra: ^1H-^13C HSQC ([Bodenhausen and Ruben, 1980]) tuned for the aliphatic region, HSQC-TOCSY ([Koz´min´ski and Koz´min´ski, 1999]), ^1H-^1H TOCSY ([Braunschweiler and Ernst, 1983]) mixing time 20 ms and 80 ms, ^1H-^1H ROESY ([Davis, 1985]) mixing time 300 ms and 500 ms. During the hIAPP-F and Pramlintide-M sample preparation, a temperature of 90°C was used to dissolve the peptides. After that, both samples were sonicated during the cooling down process to obtain a homogeneous solution. Spectra were measured immediately after sample preparation. The samples with the addition of metal ions were prepared with the same method as the samples of high tendency aggregation peptides hIAPP-F and Pramlintide-M.
All experiments were performed at a temperature of 310 K. The NMR spectra were acquired on spectrometers of 950, 800, and 700 MHz Bruker Avance NEO equipped with cryogenic TCI probes: • rIAPP-F, hIAPP-F, Pramlintide-M: 700 MHz, ^1H frequency = 700.21 MHz, ^13C frequency = 176.07 MHz • rIAPP-M: 800 MHz, ^1H frequency = 800.18 MHz, ^13C frequency = 201.21 MHz • Pramlintide-F, hIAPP-M: 950 MHz, ^1H frequency = 950.30 MHz, ^13C frequency = 238.96 MHz

[5] = Turbidity on dissolving the peptide; type: physicochemical; conditions: dissolved in 50 mM phosphate buffer to 1 mM; observation; peptides then sonicated for 25 min
Procedure: as §1

[6] = 200 µM peptide alone, phosphate buffer pH 7.4, 25°C, 24 h, cross-section profile
[7] = 200 µM peptide, phosphate buffer pH 7.4, 25°C, 24 h
[8] = peptide:Cu(II) 1:1, 200 µM, phosphate buffer pH 7.4, 24 h

For CC[C@H](C)[C@H](NC(=O)[C@H](C)NC(=O)CNC(=O)[C@H](Cc1ccccc1)NC(=O)[C@H](CC(N)=O)NC(=O)[C@H](CC(N)=O)NC(=O)[C@H](CO)NC(=O)[C@H](CO)NC(=O)[C@H](Cc1c[nH]cn1)NC(=O)[C@@H](NC(=O)[C@H](CC(C)C)NC(=O)[C@H](Cc1ccccc1)NC(=O)[C@H](CC(N)=O)NC(=O)[C@H](C)NC(=O)[C@H](CC(C)C)NC(=O)[C@H](CCCNC(=N)N)NC(=O)[C@H](CCC(N)=O)NC(=O)[C@@H](NC(=O)[C@H](C)NC(=O)[C@@H]1CSSC[C@H](NC(=O)[C@@H](N)CCCCN)C(=O)N[C@@H](CC(N)=O)C(=O)N[C@@H]([C@@H](C)O)C(=O)N[C@@H](C)C(=O)N[C@@H]([C@@H](C)O)C(=O)N1)[C@@H](C)O)C(C)C)C(=O)N[C@@H](CC(C)C)C(=O)N[C@@H](CO)C(=O)N[C@@H](CO)C(=O)N[C@H](C(=O)N[C@@H](CC(N)=O)C(=O)N[C@H](C(=O)NCC(=O)N[C@@H](CO)C(=O)N[C@@H](CC(N)=O)C(=O)N[C@H](C(=O)N[C@@H](Cc1ccc(O)cc1)C(N)=O)[C@@H](C)O)C(C)C)[C@@H](C)O [hIAPP], the “diameter of helical fibrils (AFM)” value [1, 6] was 5–6 nm, the “diameter of ribbon fibrils (AFM)” value [1, 6] was “around 2 nm” and the “fibril length (AFM), some fibrils, peptide alone” value ([1]; 200 µM peptide alone, phosphate buffer pH 7.4, 24 h, fibrils vary in length) was over 2 µm. For the same compound, the “fibril morphology (AFM), peptide alone” value [1, 7] was “relatively short worm-like fibrils”, the “average fibril length (AFM) with Cu(II)” value [1, 8] was “less than 2 µm” and the “fibril diameter (AFM) with Cu(II)” value [1, 8] was 2–3 nm. The “fibril morphology (AFM) with Cu(II)” value [1, 8] was “unique looping structure”, the “effect on cell viability, peptide alone” value ([2]; HeLa cells, 200, 400, 600 and 800 μg/mL, 24 h, CCK-8, n = 3) was “highest level of toxicity” and the “cell viability at 400 μg/mL” value ([2]; HeLa cells, 24 h, CCK-8, peptide in deionized water, triplicates) was 0%.
In the case of “SNNFGAILPP [hIAPP-M, custom-designed mutated fragment of human amylin, last two serins mutated with prolines]”, the “ThT fluorescence intensity (aggregation), peptide alone” value [3] is reported as “no increase in fluorescence intensity; also recorded: did not show any increase in the fluorescence intensity”, the “ThT fluorescence intensity (aggregation) with Cu(II)” value [3] is reported as “neither metal ions Cu(II) nor Zn(II) have any influence on the aggregation rate” and the “ThT fluorescence intensity (aggregation) with Zn(II)” value [3] is reported as “neither metal ions Cu(II) nor Zn(II) have any influence on the aggregation rate”. The “NMR signal intensity over time (signal loss = aggregation), peptide alone” value [4] was “no signal loss was observed over time”.
For SNNFGAILSS [hIAPP-F], the “time to reach saturation phase (ThT), peptide alone” value [3] was about 2.5 h, the “ThT fluorescence intensity (aggregation) with Cu(II)” value [3] was “completely inhibited the aggregation” and the “time to reach saturation phase (ThT) with Zn(II)” value ([3]; Zn(II) 1:1) was about 2.5 h. The “ThT fluorescence intensity (aggregation) with Zn(II)” value [3] was “increased the fluorescence intensity”, the “fibril morphology (AFM), peptide alone” value [1, 7] was “twisted fibril” and the “fibril diameter (AFM), peptide alone” value ([1]; 200 µM peptide, phosphate buffer pH 7.4, 25°C, 24 h, profile analysis) was “approximately 6 nm”. For the same compound, the “fibril diameter (AFM) with Zn(II)” value ([1]; peptide:Zn 1:1, 200 µM, phosphate buffer pH 7.4, 24 h) was “same diameter as the matured helical-structured fibrils”, the “NMR signal intensity deterioration with Zn(II)” value ([4]; 100 μM peptide, pH 7.4, with Zn(II)) was “occurred faster in the presence of Zn(II)” and the “NMR signal intensity over time (signal loss = aggregation), peptide alone” value [4] was “decreased over time”. The “cell viability at 800 μg/mL” value ([2]; HeLa cells, 24 h, CCK-8, peptide in deionized water, highest concentration tested, triplicates) was 60%, the “cell viability, peptide-Cu(II) complex” value ([2]; HeLa cells, peptide 200-800 μg/mL prepared in 0.5 mg/mL Cu(NO3)2, 24 h, CCK-8, n = 3) was “high cell viability” and the “cell viability / proliferation, peptide with Zn(II)” value ([2]; HeLa cells, peptide 200-800 μg/mL prepared in 0.5 mg/mL ZnCl2, 24 h, CCK-8, n = 3) was “high cell proliferation rate”. For the same compound, the turbidity after dissolving [5] was “turbidity”.
With “SNNFGPILPP [Pramlintide-F, fragment derived from pramlintide, central region]” the “ThT fluorescence intensity (aggregation), peptide alone” value [3] was “no increase in fluorescence intensity; also recorded: did not show any increase in the fluorescence intensity”, the “ThT fluorescence intensity (aggregation) with Cu(II)” value [3] was “neither metal ions Cu(II) nor Zn(II) have any influence on the aggregation rate” and the “ThT fluorescence intensity (aggregation) with Zn(II)” value [3] was “neither metal ions Cu(II) nor Zn(II) have any influence on the aggregation rate”. For the same compound, the “NMR signal intensity over time (signal loss = aggregation), peptide alone” value [4] was “no signal loss was observed over time”.
For “SNNLGPILPP [rIAPP-M, custom-designed mutated fragment of rat amylin]”, the “ThT fluorescence intensity (aggregation), peptide alone” value [3] was “no increase in fluorescence intensity; also recorded: did not show any increase in the fluorescence intensity”, the “ThT fluorescence intensity (aggregation) with Cu(II)” value [3] was “neither metal ions Cu(II) nor Zn(II) have any influence on the aggregation rate” and the “ThT fluorescence intensity (aggregation) with Zn(II)” value [3] was “neither metal ions Cu(II) nor Zn(II) have any influence on the aggregation rate”. For the same compound, the “NMR signal intensity over time (signal loss = aggregation), peptide alone” value [4] was “no signal loss was observed over time”.
With “SNNLGPVLPP [rIAPP-F, fragment derived from rat amylin, central region]” the “ThT fluorescence intensity (aggregation), peptide alone” value [3] was “did not show any increase in the fluorescence intensity”, the “ThT fluorescence intensity (aggregation) with Cu(II)” value [3] was “neither metal ions Cu(II) nor Zn(II) have any influence on the aggregation rate” and the “ThT fluorescence intensity (aggregation) with Zn(II)” value [3] was “neither metal ions Cu(II) nor Zn(II) have any influence on the aggregation rate”. The “NMR signal intensity over time (signal loss = aggregation), peptide alone” value [4] was “no signal loss was observed over time”.
